Assay results taken from ChEMBL document CHEMBL1141126, “Improving the antiviral efficacy and selectivity of HIV-1 reverse transcriptase inhibitor TSAO-T by the introduction of functional groups at the N-3 position” (J Med Chem, 2005).

Columns and labels:
CCRF-CEM [1] = assay: Cytostatic concentration required to inhibit cell proliferation in human CEM cell line; type: functional
CCRF-CEM [2] = assay: Ratio of cytostatic concentration to effective concentration in human CEM cell line; type: functional
[3] = tested on: Human immunodeficiency virus 2; assay: Effective concentration required to inhibit HIV-2 induced cytopathicity in human CEM cell line; type: functional, organism-based; details: Human immunodeficiency virus 2, CCRF-CEM
[4] = tested on: Human immunodeficiency virus 2; assay: Effective concentration required to inhibit HIV-2 induced cytopathicity in human MT-4 cell line; type: functional, organism-based; details: Human immunodeficiency virus 2, MT4
[5] = tested on: Human immunodeficiency virus 1; assay: Effective concentration required to inhibit HIV-1/138K induced cytopathicity in human CEM cell line; type: functional, organism-based; details: Human immunodeficiency virus 1, CCRF-CEM
[6] = target: Human immunodeficiency virus type 1 reverse transcriptase (Human immunodeficiency virus 1, UniProt Q72547); assay: Inhibitory concentration required to inhibit recombinant HIV-1 reverse transcriptase
[7] = tested on: Human immunodeficiency virus 1; assay: Effective concentration required to inhibit HIV-1 induced cytopathicity in human CEM cell line; type: functional, organism-based; details: Human immunodeficiency virus 1, CCRF-CEM
[8] = tested on: Human immunodeficiency virus 1; assay: Effective concentration required to inhibit HIV-1 induced cytopathicity in human MT-4 cell line; type: functional, organism-based; details: Human immunodeficiency virus 1, MT4

Structure (SMILES) | CC50 (CCRF-CEM [1]) [µM] | SI (CCRF-CEM [2]) | EC50 [3] [µM] | EC50 [4] [µM] | EC50 [5] [µM] | IC50 [6] [µM] | EC50 [7] [µM] | EC50 [8] [µM]
Cc1cn([C@@H]2O[C@H](CO[Si](C)(C)C(C)(C)C)C3(OS(=O)(=O)C=C3N)[C@H]2O[Si](C)(C)C(C)(C)C)c(=O)[nH]c1=O (some centres undefined) | 12 | 200 | > 20 | > 20 | > 10 | – | – | –
Cc1cn([C@@H]2O[C@H](CO[Si](C)(C)C(C)(C)C)[C@@]3(OS(=O)(=O)C=C3N)[C@H]2O[Si](C)(C)C(C)(C)C)c(=O)n(CCc2ccccc2)c1=O | 14.2 | 23 | > 10 | > 2 | > 10 | > 500 | 0.62 | –
COC(=O)Cn1c(=O)c(C)cn([C@@H]2O[C@H](CO[Si](C)(C)C(C)(C)C)[C@@]3(OS(=O)(=O)C=C3N)[C@H]2O[Si](C)(C)C(C)(C)C)c1=O | > 152 | >253 | > 152 | > 152 | – | 3 | 0.06 | 0.11
Cc1cn([C@@H]2O[C@H](CO[Si](C)(C)C(C)(C)C)[C@@]3(OS(=O)(=O)C=C3N)[C@H]2O[Si](C)(C)C(C)(C)C)c(=O)n(CC(=O)OCc2ccccc2)c1=O | 12.9 | 31 | > 5 | > 27 | – | > 250 | 0.41 | 0.54
Cc1cn([C@@H]2O[C@H](CO[Si](C)(C)C(C)(C)C)[C@@]3(OS(=O)(=O)C=C3N)[C@H]2O[Si](C)(C)C(C)(C)C)c(=O)n(Cc2ccccc2)c1=O | 53 | 294 | > 50 | > 50 | > 50 | > 500 | 0.18 | 0.47
Cc1cn([C@@H]2O[C@H](CO[Si](C)(C)C(C)(C)C)[C@@]3(OS(=O)(=O)C=C3N)[C@H]2O[Si](C)(C)C(C)(C)C)c(=O)n(CCC[N+](C)(C)C)c1=O.[I-] | 110 | 22 | > 25 | > 25 | > 25 | 11 | 5 | 4.9
COCCn1c(=O)c(C)cn([C@@H]2O[C@H](CO[Si](C)(C)C(C)(C)C)[C@@]3(OS(=O)(=O)C=C3N)[C@H]2O[Si](C)(C)C(C)(C)C)c1=O | 38.8 | 485 | > 10 | > 10 | > 10 | 2.9 | 0.08 | 0.16
Cc1cn([C@@H]2O[C@H](CO[Si](C)(C)C(C)(C)C)[C@@]3(OS(=O)(=O)C=C3N)[C@H]2O[Si](C)(C)C(C)(C)C)c(=O)n(CCBr)c1=O | 129 | 4300 | > 50 | > 50 | > 50 | > 500 | 0.03 | 0.17
Cc1cn([C@@H]2O[C@H](CO[Si](C)(C)C(C)(C)C)[C@@]3(OS(=O)(=O)C=C3N)[C@H]2O[Si](C)(C)C(C)(C)C)c(=O)n(CC2CC2)c1=O | 60.4 | 335 | > 10 | > 50 | > 50 | > 500 | 0.18 | 0.2
Cc1cn([C@@H]2O[C@H](CO[Si](C)(C)C(C)(C)C)[C@@]3(OS(=O)(=O)C=C3N)[C@H]2O[Si](C)(C)C(C)(C)C)c(=O)n(CCCN(C)C)c1=O | 10.4 | 61 | > 10 | > 10 | > 10 | 6.6 | 0.17 | 0.16
Cc1cn([C@@H]2O[C@H](CO[Si](C)(C)C(C)(C)C)[C@@]3(OS(=O)(=O)C=C3N)[C@H]2O[Si](C)(C)C(C)(C)C)c(=O)n(CCO)c1=O | 11.3 | 282 | > 10 | > 10 | 8 | 3.1 | 0.04 | 0.06
Cc1cn([C@@H]2O[C@H](CO[Si](C)(C)C(C)(C)C)[C@@]3(OS(=O)(=O)C=C3N)[C@H]2O[Si](C)(C)C(C)(C)C)c(=O)n(CCc2cccc3cc[nH]c23)c1=O | 27.6 | 81 | > 50 | > 10 | > 50 | > 500 | 0.34 | 0.96
CNC(=O)Cn1c(=O)c(C)cn([C@@H]2O[C@H](CO[Si](C)(C)C(C)(C)C)[C@@]3(OS(=O)(=O)C=C3N)[C@H]2O[Si](C)(C)C(C)(C)C)c1=O | ≥ 250 | >=12500 | > 50 | > 250 | 3.5 | 3.1 | 0.02 | 0.03
Cc1cn([C@@H]2O[C@H](CO[Si](C)(C)C(C)(C)C)[C@@]3(OS(=O)(=O)C=C3N)[C@H]2O[Si](C)(C)C(C)(C)C)c(=O)n(CC(=O)N(C)C)c1=O | 245 | 12250 | > 250 | > 250 | 4.5 | 3.5 | 0.02 | 0.04
COC(=O)CCCCn1c(=O)c(C)cn([C@@H]2O[C@H](CO[Si](C)(C)C(C)(C)C)[C@@]3(OS(=O)(=O)C=C3N)[C@H]2O[Si](C)(C)C(C)(C)C)c1=O | 125 | 1563 | ≥ 142 | > 142 | – | 327 | 0.08 | 0.2
CCOC(=O)CCCCCn1c(=O)c(C)cn([C@@H]2O[C@H](CO[Si](C)(C)C(C)(C)C)[C@@]3(OS(=O)(=O)C=C3N)[C@H]2O[Si](C)(C)C(C)(C)C)c1=O | 40.6 | 312 | > 50 | > 50 | > 10 | > 500 | 0.13 | 0.27
Cc1cn([C@@H]2O[C@H](CO[Si](C)(C)C(C)(C)C)[C@@]3(OS(=O)(=O)C=C3N)[C@H]2O[Si](C)(C)C(C)(C)C)c(=O)n(CCCN(CC(=O)O)CC(=O)O)c1=O | > 250 | >63 | > 10 | > 50 | > 50 | > 500 | 4 | –
Cc1cn([C@@H]2O[C@H](CO[Si](C)(C)C(C)(C)C)[C@@]3(OS(=O)(=O)C=C3N)[C@H]2O[Si](C)(C)C(C)(C)C)c(=O)n(CC(N)=O)c1=O | 13.3 | 266 | > 10 | > 10 | > 50 | > 250 | 0.05 | –
Cc1cn([C@@H]2O[C@H](CO[Si](C)(C)C(C)(C)C)[C@@]3(OS(=O)(=O)C=C3N)[C@H]2O[Si](C)(C)C(C)(C)C)c(=O)n(CC(=O)O)c1=O | 152 | 44 | ≥ 155 | > 155 | – | 15 | 3.48 | –
Cc1cn([C@@H]2O[C@H](CO[Si](C)(C)C(C)(C)C)[C@@]3(OS(=O)(=O)C=C3N)[C@H]2O[Si](C)(C)C(C)(C)C)c(=O)n(CCCN)c1=O | 11.6 | 83 | > 10 | > 10 | > 10 | 8.1 | 0.14 | –
Cc1cn([C@@H]2O[C@H](CO[Si](C)(C)C(C)(C)C)[C@@]3(OS(=O)(=O)C=C3N)[C@H]2O[Si](C)(C)C(C)(C)C)c(=O)n(CCCO)c1=O | 3.86 | 386 | > 2 | > 2 | – | 3 | 0.01 | –
